We go through 6 compounds from patent US20160010138A1, “RAPID DETERMINATION OF MICROBIAL DROWTH AND ANTIMICROBIAL SUSEPTABILITY” (priority 2013, published 2016).

Where two headings read alike, the source gives them in different places.

In assay [1] the test system is Pseudomonas aeruginosa (PSAE). As to the kind of experiment: MADM system resistance phenotype tests on respiratory specimens. The assay is classed as cell-based. The note with it: for resistance phenotype result (S/R), MADM: ID PSAE. As to the method: (§1) These specimens were prepped for introduction into the MADM system. The system performed quantitative ID for Staphylococcus aureus (STAU), Pseudomonas aeruginosa (PSAE), and Acinetobacter spp. (ABCC). Concurrent quantitative culture was performed on specimens. The MADM system performed resistance phenotype tests on STAU-containing specimens for cefoxitin (FOX) MRSA phenotyping and clindamycin (CLI) resistance. The system tested ABCC- and PSAE-containing specimens for amikacin (AN) and imipenem (IMP) resistance.
(§2) Specimen preparation used a brief procedure to release bacteria, reduce imaging background, and suspend bacteria in a low ionic strength buffer. […] The remaining 62 specimens were tested using the MADM system.
(§3) 20 μL samples of prepared specimen were pipetted into independent flowcell channels and a low-voltage electrical field was applied for 5 minutes. The electrical field concentrated bacteria onto a functional surface coating that immobilized the bacteria on the lower flowcell surface. Each flowcell channel received only one type of test reagent solution that contained a selective agent if required (only for channels used to test AB, sulbactam 32 μg/mL).
(§4) The instrument acquired images at 10-minutes intervals for 180 minutes, using 10 fields of view in each flowcell channel through a 20× objective. Imaging used darkfield illumination. Identification variables included response to selective agents (AB with sulbactam), cell morphology, growth morphology, and growth rate.
(§5) Identification algorithms applied to each individual immobilized bacterial cell. The system measured the amount of change in mass over time to compute growth rates. Identification consisted of computing and combining probability scores for morphology, response to selective media, and growth rates to produce a receiver operating characteristic curve (ROC) to derive classification criteria.

For assay [2], the system named is Pseudomonas aeruginosa (PSAE). The assay is classed as cell-based. Conditions: ID PSAE, culture result.
Description: A total of 281 de-identified remnant respiratory specimens were collected from hospital and commercial sources. The specimens included 25 endotracheal aspirates (ETA) of unknown age obtained from a specimen vendor. Also included were 230 mini-bronchoalveolar lavage (mini-BAL) and 26 ETA specimens obtained from Denver Health Medical Center (DHMC). DHMC specimens were 7-21 days old. AST results were available for all mini-BAL specimens but not for ETA. Accompanying reports also included semi-quantitative ID used to select 92 bacteria-positive specimens for analysis using the MADM system. Targets included Pseudomonas aeruginosa, Acinetobacter baumannii complex, and Staphylococcus aureus. Controls used standard culturing methods (Cx).
as §1

For assay [3], the system named is Acinetobacter spp. (ABCC). The assay is described as follows: MADM system resistance phenotype tests on respiratory specimens. The assay is classed as cell-based, Acinetobacter sp. The protocol:
as §1, §2, §3, §4, §5

The subject of assay [4] is Steno. As to the kind of experiment: MADM (BACcel) phenotype/sensitivity by growth analysis, surveillance mini-BAL. The assay is classed as cell-based, S. maltophilia. As to the method: (§6) Adult MICU patients with identified surrogate were included within 72 hours of intubation and if anticipated to require MV for >48 h. Moribund state or pregnancy were exclusions. Surveillance mini-BAL (Combicath, Plastimed) was performed on Day 1, 3, 5, 7 and 10 of MV. Samples were split and processed for both a) routine respiratory quantitative microbiological culture and sensitivity assays (>48 h result availability) and b) rapid (<8 hour) flowcell/surface-capture assays using the MADM system. Viable microorganisms were identified using growth analysis enhanced by a focused VAP antibody panel (S. aureus, P. aeruginosa, A. baumannii). Untypable organisms were also reported. Sensitivity was assessed using growth analysis. Attending physicians were blinded to MADM system results.
(§7) BAL sample were prepared, removing debris and separating microorganisms from other sample material. Sample microorganisms were introduced into a multichannel fluidic cassette as described elsewhere herein. Bacteria were concentrated and retained on the lower surface of all flowcells using low-voltage electrical field (5 min) Antibody labeling of bacteria in flowcells was used to aid identification.
(§8) The automated digital microscopy system was used to perform darkfield imaging of 10 fields of view every 10 minutes for 180 minutes in each flowcell channel. Initial epifluorescence imaging was also performed for antibody detection. […] Identification consisted of probability scores based on microorganism morphology and growth rates. Antibody labeling identification data was also incorporated. Observed microorganisms were then classified as STAU, PSAE, or non-target. Antibiotic responses were used to aid identification when appropriate. Quantitation was performed by counting identified microorganisms and computing original specimen CFU/mL.

Assay [5] concerns heat-killed cells and isopropyl alcohol killed cells. The assay is described as follows: Esterase activity indicator fluorescence in killed cells (MADM system). The assay is classed as cell-based. The source says:
Physiologic indicators of active bacteria include indicators of growth, responsiveness to external stimulus, transcription, translation, energy dependent activity, enzyme activity, and an intact permeability barrier. The indicators tested experimentally were grouped according to the following functional categories of physiologic states to which they are responsive, which included indicators of respiratory and metabolic activity, and membrane integrity.
Carboxyfluorescein diacetate/carboxyfluorescein diacetate succinimidyl ester (CFDA/CFDA-SE; Molecular Probes) compounds are converted into amine-reactive fluorescent molecules when cleaved by esterases present within active cells. When CFDA-SE is taken up by live cells, the fluorescent molecule produced by esterase cleavage and amine reaction is retained inside the cell. […] The product formed by uptake and processing of CFDA, on the other hand, should be more “leaky” over time and may exit a dead cell. […] Shorter delay times have not yet been investigated but may be compatible with avoiding false positive results while providing a shorter assay period.

For assay [6], the system named is Staphylococcus aureus (STAU). As to the kind of experiment: MADM system resistance phenotype tests on respiratory specimens. Conditions: ID STAU, MRSA by FOX. The assay is classed as cell-based. The protocol: (§9) (ABCC). Concurrent quantitative culture was performed on specimens.
Specimen preparation used a brief procedure to release bacteria, reduce imaging background, and suspend bacteria in a low ionic strength buffer. […] We rejected 10 samples with heavy interfering background when dilution to OD600=0.3 yielded organism counts inadequate for analysis. We rejected 7 samples for other technical deficiencies. The remaining 62 specimens were tested using the MADM system.
as §3, §4, §5

The subject of assay [7] is Staphylococcus aureus (STAU). The assay is described as follows: Culture (Cx) / hospital AST comparator on respiratory specimens. For resistance phenotype result (S/R), Cx: key: S: susceptible; R: resistant. The assay is classed as cell-based. The note with it: for resistance phenotype result (S/R), Cx: ID STAU, culture result, MRSA by oxacillin. The protocol: DHMC specimens were 7-21 days old. […] Controls used standard culturing methods (Cx).
as §9

In assay [8] the test system is STAU. The assay is described as follows: MADM (BACcel) phenotype/sensitivity by growth analysis, surveillance mini-BAL. The assay is classed as cell-based, S. aureus. As to the method: as §6, §7, §8
Assay [9] relates to Klebsiella pneumoniae (KP) clinical isolates. The assay is described as follows: KPC assay: growth in ertapenem with and without boronic acid inhibitor (MADM). The assay is classed as cell-based.
Description: The bottom surface was coated with poly-L-lysine to immobilize live bacteria.
Clinical isolates of Pseudomonas aeruginosa (PA), Acinetobacter baumannii (AB), and Klebsiella pneumoniae (KP) were tested. […] Test results are expressed as nonsusceptible (NS) or susceptible (S).
Isolates were grown on blood agar, suspended colonies in tryptic soy broth for 2 hours, then centrifuged and resuspended log-phase bacteria in low ionic strength electrokinetic buffer.
MADM system analysis was performed using a 32-channel disposable fluidic cassette (FIG. 4A) to measure growth of immobilized bacteria. […] Klebsiella pneumoniae (KP) clinical isolates were tested for ertapenem (ETP) nonsusceptibility at 16 μg/mL with and without the inhibitors aminophenyl boronic acid (APB) at 300 μg/mL or benzo(b)thiophene-2-boronic acid (BTB) at 50 μg/mL to identify putative KPC-positive strains.
10 μL aliquots of 5E+7 CFU/mL were pipetted into separate flowcells for each isolate and test condition. Microorganisms were electrokinetically concentrated onto the flowcell detection surface with an electrical field to the positively charged lower surface to immobilize cells and yield 10-100 bacteria per field of view (FIG. 4B). […] The system measured growth at 10-minute intervals. […] Growth was evaluated, interpreting results for PA, AB, and KP-ETP as NS if growth had not arrested within 3 hours. […]
[10] abbreviates: dyes added immediately after heat or isopropyl alcohol treatment.

In the case of `NCC[C@H](O)C(=O)N[C@@H]1C[C@H](N)[C@@H](O[C@H]2O[C@H](CN)[C@@H](O)[C@H](O)[C@H]2O)[C@H](O)[C@H]1O[C@H]1O[C@H](CO)[C@@H](O)[C@H](N)[C@H]1O` [AN, amikacin], the “susceptibility of all PSAE” value in assay [1] (all PSAE-containing respiratory specimens) is recorded as “susceptible”. The “resistance phenotype result (S/R), MADM” value in [1] (specimen DH 430, Mini-BAL) is listed as “S”; in assay [1] (specimen DH 554, BAL), “S”; in assay [1] (specimen DH 641, Mini-BAL), “S”; in assay [3] (ABCC-positive specimen (specimen name not given)) it was “S”. Besides, the “resistance phenotype result (S/R), Cx” value is given as “S” in assay [2] (specimen DH 430, Mini-BAL); “S” in assay [2] (specimen DH 554, BAL); “S” in assay [2] (specimen DH 641, Mini-BAL). Besides, in [3] (all ABCC-containing respiratory specimens), the “susceptibility of all ABCC” value is recorded as “susceptible”. Further, the “Phenotype, sensitivity (growth in antibiotic)” value is on record as “growth, TZP-” in [4] (Spec# 006-D1, BACcel ID Steno, 7.68 × 10^5 CFU/ml) and “growth, TZP-” in assay [4] (Spec# 006-D3, BACcel ID Steno, 1.60 × 10^4 CFU/ml).
For “carboxyfluorescein diacetate succinimidyl ester [CFDA-SE]”, the entries for the “fluorescence of killed cells” value in assay [5] (setting [10]) and in assay [5] (two hour post-heat-kill delay) were “demonstrated fluorescence” and “no fluorescence was observed”, respectively.
As for `CCC[C@@H]1C[C@@H](C(=O)N[C@@H]([C@H]2O[C@H](SC)[C@H](O)[C@@H](O)[C@H]2O)[C@H](C)Cl)N(C)C1` [CLI, clindamycin], the “resistance phenotype result (S/R), MADM” value is recorded as “S” in [6] (specimen DH 425, Mini-BAL); “S” in [6] (specimen DH 427, Mini-BAL); “S” in assay [6] (specimen DH 439, Mini-BAL); “S” in assay [6] (specimen DH 440, BAL); “S” in [6] (specimen DH 457, BAL); “S” in assay [6] (specimen DH 485, BAL). Besides, the “resistance phenotype result (S/R), MADM” value is on record as “S” in [6] (specimen DH 509, BAL); “S” in assay [6] (specimen DH 514, Mini-BAL); “S” in [6] (specimen DH 543, BAL); “S” in assay [6] (specimen DH 550, BAL); “S” in [6] (specimen DH 556, Mini-BAL); “S” in assay [6] (specimen T12, ETA). Moreover, the “resistance phenotype result (S/R), Cx” value is listed as “S” in assay [7] (specimen DH 425, Mini-BAL); “S” in assay [7] (specimen DH 427, Mini-BAL); “S” in assay [7] (specimen DH 439, Mini-BAL); “S” in assay [7] (specimen DH 440, BAL); “S” in assay [7] (specimen DH 457, BAL); “S” in assay [7] (specimen DH 485, BAL). The “resistance phenotype result (S/R), Cx” value in [7] (specimen DH 509, BAL) is on record as “S”; in assay [7] (specimen DH 514, Mini-BAL), “S”; in [7] (specimen DH 543, BAL), “S”; in assay [7] (specimen DH 550, BAL), “S”; in [7] (specimen DH 556, Mini-BAL), “S”; in assay [7] (specimen T12, ETA) it was “S”. Besides, the “Phenotype, sensitivity” value in [8] (Spec# 008-D7, BACcel ID STAU, 1.11 × 10^6 CFU/ml) is recorded as “(MRSA) CLI-R”; in assay [8] (Spec# 033-D7, BACcel ID STAU, 6.64 × 10^4 CFU/ml), “MRSA, CLI-R”.
With `C[C@@H](O)[C@H]1C(=O)N2C(C(=O)O)=C(S[C@@H]3CN[C@H](C(=O)Nc4cccc(C(=O)O)c4)C3)[C@H](C)[C@H]12` [ETP, ertapenem], in [9] (ETP at 16 μg/mL (FIG. 21)), the “growth of susceptible (KPC-negative) strains” value is “fail to grow”. The “growth morphology during drug exposure” value in [9] (KPC clinical isolate, ETP 16 μg/mL, 20 and 90 min of exposure (FIG. 20)) was “abnormal growth morphology”.
Take `Cc1onc(-c2ccccc2)c1C(=O)N[C@@H]1C(=O)N2[C@@H]1SC(C)(C)[C@@H]2C(=O)O` [OXA, oxacillin]: the “resistance phenotype result (S/R), Cx” value is “S” in assay [7] (specimen DH 425, Mini-BAL); “S” in assay [7] (specimen DH 427, Mini-BAL); “R” in assay [7] (specimen DH 439, Mini-BAL); “S” in [7] (specimen DH 440, BAL); “S” in assay [7] (specimen DH 457, BAL); “S” in [7] (specimen DH 485, BAL). Also, the “resistance phenotype result (S/R), Cx” value in assay [7] (specimen DH 509, BAL) is recorded as “S”; in [7] (specimen DH 514, Mini-BAL), “S”; in [7] (specimen DH 543, BAL), “S”; in [7] (specimen DH 550, BAL), “S”; in assay [7] (specimen DH 556, Mini-BAL), “S”; in assay [7] (specimen T12, ETA), “R”. In addition, the “MRSA/MSSA call by oxacillin MIC (hospital AST)” value in assay [7] (the one discordant STAU sample) is on record as “MSSA”.
Take Carboxyfluorescein diacetate [CFDA]: in [5] (setting [10]), the “fluorescence of killed cells” value is recorded as “demonstrated fluorescence”.
